Data taken from ChEMBL document CHEMBL1201862, “PubChem BioAssay data set” (2004).
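Interpolation was linear, between the two tested concentrations surrounding the appropriate level; five concentrations were tested over 48 hours in 96-well plates. Here, GI50 denotes the concentration required for 50% inhibition of growth.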 The source made the active and inactive calls. No stated cut-off is given here; in the data, active = GI50 up to about 1.1 µM and inactive = higher.

How the values were obtained:
Test in all cases: NCI-60 cell line screen, 48 h
SF-268 = test system: SF-268
HCT-116 = test system: HCT-116
MDA-MB-231 = test system: MDA-MB-231
SNB-75 = test system: SNB-75
EKVX = test system: EKVX
HT-29 = test system: HT-29
MDA-MB-435 = test system: MDA-MB-435
NCI-H522 = test system: NCI-H522
DU-145 = test system: DU-145
A498 = test system: A498
IGROV-1 = test system: IGROV-1
786-0 = test system: 786-0
LOX IMVI = test system: LOX IMVI
CCRF-CEM = test system: CCRF-CEM
HCT-15 = test system: HCT-15
KM12 = test system: KM12
OVCAR-5 = test system: OVCAR-5
MOLT-4 = test system: MOLT-4
Hs-578T = test system: Hs-578T
T47D = test system: T47D
PC-3 = test system: PC-3
ACHN = test system: ACHN
MCF7 = test system: MCF7
HOP-62 = test system: HOP-62
MDA-N = test system: MDA-N
CAKI-1 = test system: CAKI-1
NCI-H23 = test system: NCI-H23
Malme-3M = test system: Malme-3M
RPMI-8226 = test system: RPMI-8226
UACC-62 = test system: UACC-62
K562 = test system: K562
SK-MEL-2 = test system: SK-MEL-2
SF-539 = test system: SF-539
COLO 205 = test system: COLO 205
SNB-19 = test system: SNB-19
RXF 393 = test system: RXF 393
OVCAR-8 = test system: OVCAR-8
SK-MEL-5 = test system: SK-MEL-5
A549 = test system: A549
SK-MEL-28 = test system: SK-MEL-28
SN12C = test system: SN12C
SW-620 = test system: SW-620
SF-295 = test system: SF-295
HL-60 = test system: HL-60
UACC-257 = test system: UACC-257
NCI/ADR-RES = test system: NCI/ADR-RES
HCC 2998 = test system: HCC 2998
NCI-H460 = test system: NCI-H460
UO-31 = test system: UO-31
BT-549 = test system: BT-549
U-251 = test system: U-251
SR = test system: SR
HOP-92 = test system: HOP-92
SK-OV-3 = test system: SK-OV-3
OVCAR-3 = test system: OVCAR-3
TK-10 = test system: TK-10
M14 = test system: M14
NCI-H226 = test system: NCI-H226
OVCAR-4 = test system: OVCAR-4

## CN(C)c1ccc(C(c2ccc(Cl)cc2)c2ccc(N(C)C)cc2)cc1
SF-268
  GI50: > 100 µM (inactive)
HCT-116
  GI50: > 100 µM (inactive)
MDA-MB-231
  GI50: > 100 µM (inactive)
SNB-75
  GI50: > 100 µM (inactive)
EKVX
  GI50: 62.5 µM (inactive)
HT-29
  GI50: > 100 µM (inactive)
MDA-MB-435
  GI50: > 100 µM (inactive)
NCI-H522
  GI50: 28.5 µM (inactive)
DU-145
  GI50: > 100 µM (inactive)
A498
  GI50: > 100 µM (inactive)
IGROV-1
  GI50: > 100 µM (inactive)
786-0
  GI50: > 100 µM (inactive)
LOX IMVI
  GI50: > 100 µM (inactive)
CCRF-CEM
  GI50: 72.9 µM (inactive)
HCT-15
  GI50: > 100 µM
KM12
  GI50: > 100 µM (inactive)
OVCAR-5
  GI50: > 100 µM (inactive)
MOLT-4
  GI50: > 100 µM (inactive)
Hs-578T
  GI50: 90.6 µM (inactive)
T47D
  GI50: 64.7 µM (inactive)
PC-3
  GI50: > 100 µM (inactive)
ACHN
  GI50: > 100 µM (inactive)
MCF7
  GI50: 49.1 µM (inactive)
HOP-62
  GI50: > 100 µM (inactive)
MDA-N
  GI50: 82.8 µM (inactive)
CAKI-1
  GI50: > 100 µM (inactive)
NCI-H23
  GI50: > 100 µM (inactive)
Malme-3M
  GI50: 30.1 µM (inactive)
RPMI-8226
  GI50: 30.1 µM (inactive)
UACC-62
  GI50: > 100 µM (inactive)
K562
  GI50: 83 µM (inactive)
SK-MEL-2
  GI50: > 100 µM (inactive)
SF-539
  GI50: > 100 µM (inactive)
COLO 205
  GI50: 34.7 µM (inactive)
SNB-19
  GI50: > 100 µM (inactive)
RXF 393
  GI50: 28.8 µM (inactive)
OVCAR-8
  GI50: 99.1 µM (inactive)
SK-MEL-5
  GI50: 92.9 µM (inactive)
A549
  GI50: > 100 µM (inactive)
SK-MEL-28
  GI50: > 100 µM (inactive)
SN12C
  GI50: > 100 µM (inactive)
SW-620
  GI50: > 100 µM (inactive)
SF-295
  GI50: > 100 µM (inactive)
HL-60
  GI50: > 100 µM (inactive)
UACC-257
  GI50: 60.1 µM (inactive)
NCI/ADR-RES
  GI50: > 100 µM (inactive)
HCC 2998
  GI50: 69 µM (inactive)
NCI-H460
  GI50: > 100 µM (inactive)
UO-31
  GI50: > 100 µM (inactive)
BT-549
  GI50: 54.8 µM (inactive)
U-251
  GI50: > 100 µM (inactive)
SR
  GI50: 57.5 µM (inactive)
HOP-92
  GI50: > 100 µM (inactive)
SK-OV-3
  GI50: > 100 µM (inactive)
OVCAR-3
  GI50: > 100 µM (inactive)
TK-10
  GI50: > 100 µM (inactive)
M14
  GI50: > 100 µM (inactive)

## CCOP(=O)(C/C=C/Cn1nc(Br)c(=O)[nH]c1=O)OCC
SF-268
  GI50: > 100 µM (inactive)
NCI-H226
  GI50: > 100 µM (inactive)
HCT-116
  GI50: > 100 µM (inactive)
MDA-MB-231
  GI50: > 100 µM (inactive)
SNB-75
  GI50: > 100 µM (inactive)
EKVX
  GI50: > 100 µM (inactive)
HT-29
  GI50: > 100 µM (inactive)
MDA-MB-435
  GI50: > 100 µM (inactive)
NCI-H522
  GI50: > 100 µM (inactive)
DU-145
  GI50: > 100 µM (inactive)
A498
  GI50: > 100 µM (inactive)
IGROV-1
  GI50: > 100 µM (inactive)
786-0
  GI50: > 100 µM (inactive)
LOX IMVI
  GI50: > 100 µM (inactive)
CCRF-CEM
  GI50: > 100 µM (inactive)
HCT-15
  GI50: > 100 µM
KM12
  GI50: > 100 µM (inactive)
OVCAR-5
  GI50: > 100 µM (inactive)
MOLT-4
  GI50: > 100 µM (inactive)
Hs-578T
  GI50: > 100 µM (inactive)
T47D
  GI50: > 100 µM (inactive)
PC-3
  GI50: > 100 µM (inactive)
ACHN
  GI50: > 100 µM (inactive)
MCF7
  GI50: > 100 µM (inactive)
HOP-62
  GI50: > 100 µM (inactive)
MDA-N
  GI50: > 100 µM (inactive)
CAKI-1
  GI50: > 100 µM (inactive)
NCI-H23
  GI50: > 100 µM (inactive)
Malme-3M
  GI50: > 100 µM (inactive)
RPMI-8226
  GI50: > 100 µM (inactive)
UACC-62
  GI50: > 100 µM (inactive)
K562
  GI50: > 100 µM (inactive)
SK-MEL-2
  GI50: > 100 µM (inactive)
OVCAR-4
  GI50: > 100 µM (inactive)
SF-539
  GI50: > 100 µM (inactive)
COLO 205
  GI50: > 100 µM (inactive)
SNB-19
  GI50: > 100 µM (inactive)
RXF 393
  GI50: > 100 µM (inactive)
OVCAR-8
  GI50: > 100 µM (inactive)
SK-MEL-5
  GI50: > 100 µM (inactive)
A549
  GI50: > 100 µM (inactive)
SK-MEL-28
  GI50: > 100 µM (inactive)
SN12C
  GI50: > 100 µM (inactive)
SW-620
  GI50: > 100 µM (inactive)
SF-295
  GI50: > 100 µM (inactive)
HL-60
  GI50: > 100 µM (inactive)
UACC-257
  GI50: > 100 µM (inactive)
NCI/ADR-RES
  GI50: > 100 µM (inactive)
HCC 2998
  GI50: > 100 µM (inactive)
NCI-H460
  GI50: > 100 µM (inactive)
UO-31
  GI50: > 100 µM (inactive)
BT-549
  GI50: > 100 µM (inactive)
U-251
  GI50: > 100 µM (inactive)
SR
  GI50: > 100 µM (inactive)
HOP-92
  GI50: > 100 µM (inactive)
OVCAR-3
  GI50: > 100 µM (inactive)
TK-10
  GI50: > 100 µM (inactive)
M14
  GI50: > 100 µM (inactive)
